Experiments:
[1] = tested on: SIMA; test: cells; assay type: functional, cell-based, Homo sapiens; settings: Homo sapiens, SIMA;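 also: growth inhibition of SIMA cells, measured with a cell viability readout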
Description: SANGER: Inhibition of human SIMA cell growth in a cell viability assay.

[2] = tested on: MEL-JUSO; test: cells; assay type: functional, cell-based, Homo sapiens; settings: Homo sapiens, MEL-JUSO;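 also: growth inhibition of human MEL-JUSO cells, read out with a cell viability assay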
Description: SANGER: Inhibition of human MEL-JUSO cell growth in a cell viability assay.

[3] = tested on: DG-75; test: cells; assay type: functional, cell-based; settings: Homo sapiens;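 also: growth inhibition of DG-75 cells, read out with a cell viability assay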
Description: SANGER: Inhibition of human DG-75 cell growth in a cell viability assay.

[4] = tested on: LU-165; test: cells; assay type: functional, cell-based; settings: Homo sapiens
Description: SANGER: Inhibition of human LU-165 cell growth in a cell viability assay.

[5] = tested on: THP-1; test: cells; assay type: functional, cell-based; settings: Homo sapiens;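 also: growth inhibition of THP-1 cells, read out via a cell viability assay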
Description: SANGER: Inhibition of human THP-1 cell growth in a cell viability assay.

[6] = tested on: NCI-H1417; test: cells; assay type: functional, cell-based; settings: Homo sapiens;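 also: human NCI-H1417 cells, growth inhibition determined with a cell viability readout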
Description: SANGER: Inhibition of human NCI-H1417 cell growth in a cell viability assay.

[7] = tested on: EB-3; test: cells; assay type: functional, cell-based; settings: Homo sapiens;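 also: human EB-3 cells, growth inhibition read out via a cell viability assay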
Description: SANGER: Inhibition of human EB-3 cell growth in a cell viability assay.

[8] = tested on: HT55; test: cells; assay type: functional, cell-based, Homo sapiens; settings: Homo sapiens, HT55;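 also: cell viability readout measuring growth inhibition of human HT55 cells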
Description: SANGER: Inhibition of human HT55 cell growth in a cell viability assay.

[9] = tested on: NCI-H460; test: cells; assay type: functional, cell-based, Homo sapiens; settings: Homo sapiens, NCI-H460;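 also: cell viability assay scoring growth inhibition of human NCI-H460 cells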
Description: SANGER: Inhibition of human NCI-H460 cell growth in a cell viability assay.

[10] = tested on: NCI-H748; test: cells; assay type: functional, cell-based; settings: Homo sapiens;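 also: growth inhibition of NCI-H748 cells, measured by a cell viability assay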
Description: SANGER: Inhibition of human NCI-H748 cell growth in a cell viability assay.

[11] = tested on: SJRH30; test: cells; assay type: functional, cell-based; settings: Homo sapiens;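 also: growth inhibition of human SJRH30 cells, read out with a cell viability assay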
Description: SANGER: Inhibition of human SJRH30 cell growth in a cell viability assay.

[12] = tested on: SK-MM-2; test: cells; assay type: functional, cell-based; settings: Homo sapiens;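 also: growth inhibition of human SK-MM-2 cells, read out with a cell viability assay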
Description: SANGER: Inhibition of human SK-MM-2 cell growth in a cell viability assay.

[13] = tested on: IM-9; test: SANGER: Inhibition of human IM-9 cell growth in a cell viability assay.; assay type: functional, cell-based
[14] = tested on: G-361; test: cells; assay type: functional, cell-based, Homo sapiens; settings: Homo sapiens, G-361
[15] = tested on: NCI-H1436; test: cells; assay type: functional, cell-based; settings: Homo sapiens;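 also: growth suppression of human NCI-H1436 cells, determined with a cell viability readout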
Description: SANGER: Inhibition of human NCI-H1436 cell growth in a cell viability assay.

[16] = tested on: BL-41; test: cells; assay type: functional, cell-based; settings: Homo sapiens;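 also: growth inhibition of human BL-41 cells, read out with a cell viability assay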
Description: SANGER: Inhibition of human BL-41 cell growth in a cell viability assay.

[17] = tested on: LB647-SCLC; test: cells; assay type: functional, cell-based; settings: Homo sapiens;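 also: cell growth inhibition, read out by a viability assay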
Description: SANGER: Inhibition of human LB647-SCLC cell growth in a cell viability assay.

[18] = tested on: RPMI 8402; test: SANGER: Inhibition of human RPMI-8402 cell growth in a cell viability assay.; assay type: functional, cell-based
[19] = tested on: Kasumi 1; test: cells; assay type: functional, cell-based; settings: Homo sapiens;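 also: growth inhibition of human Kasumi-1 cells, read out by a cell viability assay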
Description: SANGER: Inhibition of human KASUMI-1 cell growth in a cell viability assay.

[20] = tested on: NCI-H345; test: cells; assay type: functional, cell-based; settings: Homo sapiens;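 also: growth inhibition of NCI-H345 cells measured with a cell viability assay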
Description: SANGER: Inhibition of human NCI-H345 cell growth in a cell viability assay.

[21] = tested on: MHH-CALL-2; test: cells; assay type: functional, cell-based; settings: Homo sapiens;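 also: growth inhibition of the cell line, read out in a cell viability assay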
Description: SANGER: Inhibition of human MHH-CALL-2 cell growth in a cell viability assay.

[22] = tested on: DMS-153; test: cells; assay type: functional, cell-based; settings: Homo sapiens
Description: SANGER: Inhibition of human DMS-153 cell growth in a cell viability assay.

[23] = tested on: EVSA-T; test: cells; assay type: functional, cell-based, Homo sapiens; settings: Homo sapiens, EVSA-T;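 also: growth inhibition of EVSA-T cells, read out with a cell viability assay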
Description: SANGER: Inhibition of human EVSA-T cell growth in a cell viability assay.

[24] = tested on: NCI-H1703; test: cells; assay type: functional, cell-based, Homo sapiens; settings: Homo sapiens, NCI-H1703;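 also: growth inhibition of NCI-H1703 cells, read out via a cell viability assay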
Description: SANGER: Inhibition of human NCI-H1703 cell growth in a cell viability assay.

[25] = tested on: SCLC-21H; test: cells; assay type: functional, cell-based; settings: Homo sapiens;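 also: growth inhibition of cultured human SCLC-21H cells, read out with a cell viability assay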
Description: SANGER: Inhibition of human SCLC-21H cell growth in a cell viability assay.

[26] = tested on: SCC-3; test: cells; assay type: functional, cell-based; settings: Homo sapiens;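 also: cell viability assay measuring inhibition of SCC-3 cell growth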
Description: SANGER: Inhibition of human SCC-3 cell growth in a cell viability assay.

[27] = tested on: NCI-H64; test: cells; assay type: functional, cell-based; settings: Homo sapiens;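 also: growth inhibition of NCI-H64 cells, read out with a cell viability assay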
Description: SANGER: Inhibition of human NCI-H64 cell growth in a cell viability assay.

[28] = tested on: NCI-H2009; test: cells; assay type: functional, cell-based, Homo sapiens; settings: Homo sapiens, NCI-H2009;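 also: cell viability assay measuring inhibition of NCI-H2009 cell growth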
Description: SANGER: Inhibition of human NCI-H2009 cell growth in a cell viability assay.

[29] = tested on: LOUCY; test: cells; assay type: functional, cell-based; settings: Homo sapiens;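 also: growth inhibition of human LOUCY cells, read out with a cell viability assay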
Description: SANGER: Inhibition of human LOUCY cell growth in a cell viability assay.

[30] = tested on: ARH-77; test: cells; assay type: functional, cell-based; settings: Homo sapiens;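 also: growth inhibition of ARH-77 cells, read out by a cell viability assay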
Description: SANGER: Inhibition of human ARH-77 cell growth in a cell viability assay.

[31] = tested on: NCI-H1694; test: cells; assay type: functional, cell-based; settings: Homo sapiens;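 also: cell viability assay measuring inhibition of growth in human NCI-H1694 cells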
Description: SANGER: Inhibition of human NCI-H1694 cell growth in a cell viability assay.

[32] = tested on: CA46; test: cells; assay type: functional, cell-based; settings: Homo sapiens;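 also: growth inhibition of human CA46 cells, read out by a cell viability assay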
Description: SANGER: Inhibition of human CA46 cell growth in a cell viability assay.

[33] = tested on: CAL-148; test: cells; assay type: functional, cell-based; settings: Homo sapiens
Description: SANGER: Inhibition of human CAL-148 cell growth in a cell viability assay.

[34] = tested on: NB1; test: cells; assay type: functional, cell-based; settings: Homo sapiens;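 also: reduction of NB1 cell proliferation, read out with a viability assay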
Description: SANGER: Inhibition of human NB1 cell growth in a cell viability assay.

[35] = tested on: SUP-T1; test: cells; assay type: functional, cell-based; settings: Homo sapiens;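 also: growth inhibition of human SUP-T1 cells, read out as cell viability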
Description: SANGER: Inhibition of human SUP-T1 cell growth in a cell viability assay.

[36] = tested on: NCI-H2141; test: cells; assay type: functional, cell-based; settings: Homo sapiens;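 also: growth inhibition of human NCI-H2141 cells, read out with a cell viability assay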
Description: SANGER: Inhibition of human NCI-H2141 cell growth in a cell viability assay.

[37] = tested on: TE-15; test: cells; assay type: functional, cell-based; settings: Homo sapiens;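 also: cell viability readout of growth inhibition in TE-15 cells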
Description: SANGER: Inhibition of human TE-15 cell growth in a cell viability assay.

[38] = tested on: NCI-H1522; test: cells; assay type: functional, cell-based; settings: Homo sapiens;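 also: growth inhibition of NCI-H1522 cells, read out with a cell viability assay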
Description: SANGER: Inhibition of human NCI-H1522 cell growth in a cell viability assay.

[39] = tested on: GDM-1; test: cells; assay type: functional, cell-based; settings: Homo sapiens;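 also: cell viability readout used to measure growth inhibition of human GDM-1 cells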
Description: SANGER: Inhibition of human GDM-1 cell growth in a cell viability assay.

[40] = tested on: REH; test: cells; assay type: functional, cell-based; settings: Homo sapiens;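 also: growth inhibition of REH cells determined with a cell viability read-out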
Description: SANGER: Inhibition of human REH cell growth in a cell viability assay.

[41] = tested on: ST486; test: SANGER: Inhibition of human ST486 cell growth in a cell viability assay.; assay type: functional, cell-based
[42] = tested on: NCI-H889; test: cells; assay type: functional, cell-based; settings: Homo sapiens;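 also: cell growth inhibition of the cell line, read out with a viability assay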
Description: SANGER: Inhibition of human NCI-H889 cell growth in a cell viability assay.

[43] = tested on: NCI-H2081; test: cells; assay type: functional, cell-based; settings: Homo sapiens;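 also: growth inhibition of human NCI-H2081 cells, read out with a cell viability assay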
Description: SANGER: Inhibition of human NCI-H2081 cell growth in a cell viability assay.

[44] = tested on: CHP-126; test: cells; assay type: functional, cell-based; settings: Homo sapiens
Description: SANGER: Inhibition of human CHP-126 cell growth in a cell viability assay.

[45] = tested on: K052; test: cells; assay type: functional, cell-based; settings: Homo sapiens;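 also: Read-out from a cell viability assay, IC50 reflecting suppression of K052 cell growth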
Description: SANGER: Inhibition of human K052 cell growth in a cell viability assay.

[46] = tested on: KMS-12-PE; test: cells; assay type: functional, cell-based; settings: Homo sapiens;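 also: growth inhibition of human KMS-12-PE cells, measured with a cell viability assay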
Description: SANGER: Inhibition of human KMS-12-PE cell growth in a cell viability assay.

[47] = tested on: MONO-MAC-6; test: cells; assay type: functional, cell-based; settings: Homo sapiens;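 also: cell viability assay measuring growth inhibition of human MONO-MAC-6 cells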
Description: SANGER: Inhibition of human MONO-MAC-6 cell growth in a cell viability assay.

[48] = tested on: NCI-H2171; test: cells; assay type: functional, cell-based; settings: Homo sapiens;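 also: growth inhibition of human NCI-H2171 cells, read out by a cell viability assay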
Description: SANGER: Inhibition of human NCI-H2171 cell growth in a cell viability assay.

[49] = tested on: TE-441-T; test: cells; assay type: functional, cell-based; settings: Homo sapiens
Description: SANGER: Inhibition of human TE-441-T cell growth in a cell viability assay.

[50] = tested on: BC-3; test: cells; assay type: functional, cell-based; settings: Homo sapiens;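 also: cell viability assay measuring growth inhibition of human BC-3 cells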
Description: SANGER: Inhibition of human BC-3 cell growth in a cell viability assay.

Measured: IC50

Cc1cnc(-c2cnc(NCCNc3ccc(C#N)cn3)nc2-c2ccc(Cl)cc2Cl)[nH]1 [LADUVIGLUSIB]
> 2.56 µM: [1] | [2] | [3] | [4] | [5] | [6] | [7] | [8] | [9] | [10] | [11] | [12] | [13] | [14] | [15] | [16] | [17] | [18] | [19] | [20] | [21] | [22] | [23] | [24] | [25] | [26] | [27] | [28] | [29] | [30] | [31] | [32] | [33] | [34] | [35] | [36] | [37] | [38] | [39] | [40] | [41] | [42] | [43] | [44] | [45] | [46] | [47] | [48] | [49] | [50]

From ChEMBL document CHEMBL1201861, “Genomics of Drug Sensitity in Cancer screening data, Wellcome Trust Sanger Institute”
